According to PubChem BioAssay (NCI):
“And” between values parts separate entries of the source, which are not always exact repeats. Equal entries are not always repeated.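 Test compounds were applied to cells in 96-well plates for 48 hours at 5 doses. GI50 is the concentration that inhibits growth by half. Definition used: TGI = concentration required for complete inhibition of growth.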

Key:
Assay in all cases: inhibition of tumour cell growth, NCI panel, 48 h
SN12C renal = test system: SN12C renal
HOP-62 NSCLC = test system: HOP-62 NSCLC
COLO 205 colon = test system: COLO 205 colon
IGROV1 ovarian = test system: IGROV1 ovarian
SK-MEL-2 melanoma = test system: SK-MEL-2 melanoma
786-0 renal = test system: 786-0 renal
HCT-15 colon = test system: HCT-15 colon
NCI-H522 lung = test system: NCI-H522 lung
SF-539 CNS = test system: SF-539 CNS
SK-OV-3 ovarian = test system: SK-OV-3 ovarian

SMILES | GI50 (SN12C renal) | TGI (SN12C renal) | GI50 (HOP-62 NSCLC) | TGI (HOP-62 NSCLC) | GI50 (COLO 205 colon) | TGI (COLO 205 colon) | GI50 (IGROV1 ovarian) | TGI (IGROV1 ovarian) | GI50 (SK-MEL-2 melanoma) | TGI (SK-MEL-2 melanoma) | GI50 (786-0 renal) | TGI (786-0 renal) | GI50 (HCT-15 colon) | TGI (HCT-15 colon) | GI50 (NCI-H522 lung) | TGI (NCI-H522 lung) | TGI (SF-539 CNS) | GI50 (SK-OV-3 ovarian) | TGI (SK-OV-3 ovarian) | GI50 (SF-539 CNS)
O=C1Nc2ccccc2/C1=C\c1c(-c2ccccc2)nc2sccn12 | 2.75 µM | 14.4 µM | 2.32 µM | 9.44 µM | 2.23 µM | 16.4 µM | 1980 nM | > 54.2 µM | 5.87 µM | 22.6 µM | 2.39 µM | 9.23 µM | 1.08 µM | 8.39 µM | 1440 nM | 14.6 µM | > 34.4 µM | 2.91 µM | 12.7 µM | 
CCN1CCC(CC(=O)Nc2n[nH]c3nnc(-c4cccc(F)c4F)cc23)CC1 | > 25 µM | > 25 µM | > 25 µM | > 25 µM | 22.3 µM | > 25 µM | > 25000 nM | > 25 µM | 16.9 µM | > 25 µM | > 25 µM | > 25 µM | > 25 µM | > 25 µM | > 25000 nM | > 25 µM | > 25 µM | > 25 µM | > 25 µM | > 18.9 µM
CS(=O)(=O)CCNCc1ccc(-c2ccc3ncnc(Nc4ccc(OCc5cccc(F)c5)c(Cl)c4)c3c2)o1 | > 10 µM and 9.1 µM | > 10 µM and > 100 µM and 36.2 µM | > 10 µM and > 62.2 µM and 13 µM | > 10 µM and > 100 µM and 43.9 µM | > 10 µM and > 78.8 µM and 10.3 µM | > 10 µM and > 100 µM and 33.3 µM | 2020 nM and 338 nM and 387 nM | > 10 µM and 26.1 µM | > 10 µM and 2.46 µM and 5.9 µM | > 10 µM and 8.59 µM and 23.1 µM | > 10 µM and 4.43 µM and 5.46 µM | > 10 µM and > 42.3 µM and 29.2 µM | 4.97 µM and 3.63 µM and 3.54 µM | > 10 µM and > 100 µM and 27.6 µM | 280 nM and 397 nM and 815 nM | > 10 µM and > 100 µM and 28.9 µM | > 10 µM and 98.1 µM and 29.9 µM | 0.0681 µM and 0.0409 µM and 0.0441 µM | > 10 µM and > 100 µM and 31.7 µM | > 10 µM and 9.11 µM and 7.5 µM
Cc1ccccc1C1=C(c2cn(C)c3ccccc23)C(=O)NC1=O | > 22.7 µM | > 25 µM | > 24.1 µM | > 25 µM | 9.01 µM | > 25 µM | > 25000 nM | > 25 µM | 24.9 µM | > 25 µM | > 25 µM | > 25 µM | 10.7 µM | > 25 µM | > 22600 nM | > 25 µM | > 25 µM | > 25 µM | > 25 µM | 13.7 µM
COC(=O)c1cc(NC(=O)c2cc(NC(=O)c3cc([N+](=O)[O-])n(C)c3)cn2C)cn1C | > 100 µM | > 100 µM | 6.4 µM | > 100 µM | 45.9 µM | > 100 µM | > 100000 nM | > 100 µM | > 100 µM | > 100 µM | > 100 µM | > 100 µM | 44.8 µM | > 100 µM | 58900 nM | > 100 µM | > 100 µM | 45.3 µM | > 100 µM | 56.1 µM
O=[N+]([O-])c1ccc(/C=C/c2nc3ccc(Cl)cc3[nH]2)cc1 | 24 µM | 91 µM | 37.7 µM | > 100 µM | > 100 µM | > 100 µM | 35700 nM | > 100 µM | > 100 µM | > 100 µM | 18.7 µM | 43.3 µM | 11.7 µM | > 100 µM | 14100 nM | > 100 µM | 39.4 µM | > 100 µM | > 100 µM | 15.9 µM
O=C(C=Nc1ccccc1C(=O)[O-])c1cccs1.O=C(C=Nc1ccccc1C(=O)[O-])c1cccs1.[Ni+2] |  | > 100 µM |  | > 100 µM |  | > 100 µM |  | > 100 µM |  | > 100 µM |  | > 100 µM |  | > 100 µM |  | 55.3 µM | > 100 µM |  | > 100 µM | 
COc1cc2c(cc1OC)C(C#N)N(C(=O)c1ccccc1)C=C2OC(=O)c1ccccc1 (centres undefined) |  | > 100 µM |  | 35.2 µM |  | > 100 µM |  | 50.2 µM |  | 54.7 µM |  | 34.7 µM |  | > 100 µM |  | 39.2 µM | 39 µM |  | > 100 µM | 
Cc1cc(=O)[nH]c(CNC(=O)c2ccc3ccccc3c2)n1 |  | > 100 µM |  | > 100 µM |  | > 100 µM |  | > 100 µM |  | > 100 µM |  | > 100 µM |  | > 100 µM |  | > 100 µM | > 100 µM |  | > 100 µM | 
CC1=C/C=C/C(=O)O[C@@H]([C@H](C)[C@H](O)[C@@H](C)NC(=O)C(C)C)[C@H](C)/C=C/C(C)=C/[C@H]2C=CCC[C@@]2(C)\C=C\1 | 0.806 µM and 0.275 µM | 8.46 µM | 2.13 µM and 4.68 µM | 12.5 µM | 0.322 µM and 0.189 µM | 7.33 µM | 603 nM and 189 nM | 10.7 µM | 6.98 µM | 20.4 µM | 0.506 µM and 0.147 µM | 8.06 µM | 0.231 µM and 0.275 µM | 9.15 µM | 4970 nM and 2060 nM | 13.6 µM | 5.3 µM | 3.09 µM and 0.872 µM | > 42.3 µM | 0.0586 µM and 0.0588 µM
Fc1cc(F)c(F)c(S)c1F |  | 43.8 µM |  | > 100 µM |  | > 100 µM |  | > 100 µM |  | > 100 µM |  | > 100 µM |  | > 100 µM |  | 37.8 µM | > 100 µM |  | > 100 µM | 
Cc1ccc(C)c2c1C(=O)N(c1ccc(F)cc1F)C2=O | > 100 µM | > 100 µM | > 100 µM | > 100 µM | > 100 µM | > 100 µM | > 100000 nM | > 100 µM | > 100 µM | > 100 µM | > 100 µM | > 100 µM | > 100 µM | > 100 µM | > 100000 nM | > 100 µM | > 100 µM | > 100 µM | > 100 µM | > 100 µM
ClCCCSSCCCCl |  | > 95.1 µM |  | > 100 µM |  | > 72.5 µM |  | > 100 µM |  | > 100 µM |  | > 100 µM |  | 57.7 µM |  | 65.6 µM | 48.8 µM |  | > 100 µM | 
COc1ccc(-c2cc(/C=C3\C(=O)Nc4cc(Cl)ccc43)[nH]n2)cc1 | 6.69 µM | > 100 µM | 2.75 µM | 85.9 µM | 2.06 µM | 5.51 µM | 4760 nM | > 100 µM | 4.35 µM | > 100 µM | 9.71 µM | > 100 µM | 2.53 µM | > 100 µM | 1880 nM | 6.77 µM | 7.52 µM | 4.23 µM | > 100 µM | 2.41 µM
Cn1cc(C2=C(c3c4n(c5ccccc35)CCNC4)C(=O)NC2=O)c2ccccc21 | 11.9 µM | > 25 µM | 17.5 µM | > 25 µM | 6.66 µM | > 21.8 µM | > 10000 nM | > 21.5 µM | 8.03 µM | > 21.3 µM | 14.8 µM | > 25 µM | 5.71 µM | > 25 µM | 4650 nM | > 19.1 µM | 14.3 µM | 8.84 µM | > 25 µM | 5.72 µM
O=C(COc1ccccc1Cl)N1N=C(c2ccccc2)CC1(O)c1ccccc1 (centres undefined) |  | 25.6 µM |  | 28.5 µM |  | 33.9 µM |  | 55.7 µM |  | 36.8 µM |  | 31 µM |  | 33.6 µM |  | > 100 µM | 34.2 µM |  | 47.7 µM | 
